Measured values taken from patent US20250002473A1, “QUINOXALINE DERIVED SULFONAMIDES WITH EGFR DEGRADATION ACTIVITIES AND THEIR USES THEREOF” (Accutar Biotechnology Inc., priority 2023, published 2025).

Key:
Assay type in all cases: cell-based
[1] = target: T1, BaF3_ASV (EGFR_A776inASV) (Homo sapiens, UniProt P00533, DUP767-769); experiment: EGFR degradation assay (western blot), BaF3_ASV cells; conditions: BaF3_ASV cells, compounds 24 h, western blot; read-out: BaF3_ASV DC50
T1 construct: expressed in transfected cells; host or cells: Ba/F3 (engineered)
T1 sequence (P00533 with tags, fused parts or gaps DUP767-769): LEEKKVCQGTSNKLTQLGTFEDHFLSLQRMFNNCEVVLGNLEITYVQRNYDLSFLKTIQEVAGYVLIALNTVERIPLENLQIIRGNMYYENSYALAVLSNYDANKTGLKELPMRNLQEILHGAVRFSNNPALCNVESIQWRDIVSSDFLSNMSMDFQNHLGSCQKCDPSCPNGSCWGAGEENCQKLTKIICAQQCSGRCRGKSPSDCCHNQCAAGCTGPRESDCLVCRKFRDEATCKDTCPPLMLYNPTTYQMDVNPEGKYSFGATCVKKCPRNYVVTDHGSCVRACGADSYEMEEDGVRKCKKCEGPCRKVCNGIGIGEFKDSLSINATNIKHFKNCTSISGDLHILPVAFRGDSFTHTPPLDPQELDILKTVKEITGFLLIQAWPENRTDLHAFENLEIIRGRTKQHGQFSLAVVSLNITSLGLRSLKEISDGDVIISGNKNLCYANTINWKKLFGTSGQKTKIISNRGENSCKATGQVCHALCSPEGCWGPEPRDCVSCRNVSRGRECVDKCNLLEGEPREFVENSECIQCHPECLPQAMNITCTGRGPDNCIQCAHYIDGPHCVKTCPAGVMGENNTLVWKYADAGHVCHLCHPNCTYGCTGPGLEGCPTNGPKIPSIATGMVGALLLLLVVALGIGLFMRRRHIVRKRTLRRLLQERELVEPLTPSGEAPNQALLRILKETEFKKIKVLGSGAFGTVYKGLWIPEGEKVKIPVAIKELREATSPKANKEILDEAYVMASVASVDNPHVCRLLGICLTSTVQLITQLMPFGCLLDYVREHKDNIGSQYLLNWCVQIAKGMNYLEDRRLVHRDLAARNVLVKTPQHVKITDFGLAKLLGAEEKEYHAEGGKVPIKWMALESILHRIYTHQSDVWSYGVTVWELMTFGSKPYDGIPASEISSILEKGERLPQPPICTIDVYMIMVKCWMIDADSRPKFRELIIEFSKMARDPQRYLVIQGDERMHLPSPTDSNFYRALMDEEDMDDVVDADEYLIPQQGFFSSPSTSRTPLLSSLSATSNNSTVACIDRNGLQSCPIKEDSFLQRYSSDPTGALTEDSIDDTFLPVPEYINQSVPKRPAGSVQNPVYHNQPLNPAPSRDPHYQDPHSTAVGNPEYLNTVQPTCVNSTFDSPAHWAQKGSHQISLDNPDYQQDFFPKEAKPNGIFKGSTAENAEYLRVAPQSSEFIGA
Protocol: (§1) A431 (EGFR_WT), NCl-H2073 (EGFR_WT), NCl-H292 (EGFR_WT), BaF3_YVAM (Her2_A775insYVAM), BaF3_SVD (EGFR_D770insSVD), BaF3_ASV (EGFR_A776inASV), or BaF3_DTC (EGFR_Exon19del/T790M/C797S) cells were seeded in a 24-well plate at a density of 4×10^5 cells per well for EGFR WT cells and 8× cells per well for EGFR or Her2 mutant cells, and the plates were incubated overnight. The cells were treated with the desired compounds for 24 h. The culture medium was removed, and 100 μL of RIPA buffer (Beyotime, P0013B) containing 1% Protease Inhibitor Cocktail (Bimake, B14001), 1% Phosphatase Inhibitor Cocktail 2 (Sigma, P5726), and 1% Phosphatase Inhibitor Cocktail 3 (Sigma, P0044) were added to lyse the cells. Then, the cell lysates were transferred to 1.5 mL microcentrifuge tubes and centrifuged at 12,000 rpm and 4° C. for 30 min. The supernatants were transferred into new tubes, and the protein concentration was determined using the BCA protein quantification method. All samples were diluted to the same concentration using RIPA buffer, loading buffer was added, samples were denatured, and 15 μg of protein per lane was loaded onto a SurePAGE 4-20% Bis-Tris gel. Samples were separated via electrophoresis in MOPS running buffer at 180 V for 100 min. Then, proteins were transferred onto PVDF membranes using the MiniBlot™ Electrophoretic Transfer Cell Device (Beyotime, E6050). The membrane was blocked using block buffer (LI-COR 927-60001) to prevent non-specific binding. The membrane was incubated with primary antibodies (1:500 dilution, EGFR-CST4405, 1:2000 dilution, Tubulin-ABclonal #AC021) at 4° C. overnight. The membrane was washed three times with 1× TBST buffer for 15 min each. The membrane was incubated with secondary antibodies IRDye 680RD Goat anti-Rabbit IgG Secondary Antibody (1:2000 dilution, LI-COR 926-68071) and IRDye 800CW Goat anti-Mouse IgG Secondary Antibody (1:2000 dilution, LI-COR 926-32210). Finally, the membrane was washed again with 1× TBST buffer 3 times. Fluorescence was detected using the Odyssey CLx Imaging System, and the data were analyzed with Empiria Studio Software and GraphPad Prism 9. Table 4 and Table 5 list the degradation results, where the degradation potency is represented by DC50, the concentration of compounds to cause the degradation of 50% of the corresponding proteins. FIGS. 45-49 show western blots illustrating the EGFR degradative activity of exemplary Compound of the present disclosure and a comparator Compound A in different cell lines 24 h after administration. The Compound referred herein as Compound A is disclosed in WO 2022/171123 A1 (see, compound 133, page 46; published Aug. 18, 2022). WO 2022/171123 A1 discloses phosphine oxide derived molecules with EGFR degradation activity.

BaF3_ASV = experiment: Cell growth inhibition assay (CellTiter-Glo), BaF3_ASV; conditions: 72 h; Table 6; BaF3_ASV cells, three days, CellTiter-Glo; read-out: BaF3_ASV GI50
Protocol: (§2) Cells were seeded in a 96-well plate (Corning 3610) with 90 μL of culture medium per well, and plates were incubated at 37° C. overnight. A 1,000× DMSO stock solution of the desired compound was prepared the following day. A compound dilution plate was prepared by diluting the stock solution 1:100 in the corresponding cell culture medium, 10 μL of the diluted compound solution was added to each 96-well plate well containing the seeded cells. […] The content of the wells was mixed by shaking continuously for 10 min, and luminescence was measured using Envision (PerkinElmer). The data were analyzed with GraphPad Prism 9 (see FIG. 50).
(§3) Table 6, Table 7, and Table 8 list the cell growth inhibition results, where Gls0 represents the compound concentration to cause 50% cell growth inhibition in comparison with DMSO.

A431 = experiment: Cell growth inhibition assay (CellTiter-Glo), A431; conditions: Homo sapiens, A-431, 72 h, Table 6; A431 cells, three days, CellTiter-Glo; read-out: A431 GI50
Protocol: as §2, §3

[2] = tested on: BaF3_DTC (EGFR_Exon19del/T790M/C797S); experiment: EGFR degradation assay (western blot), BaF3_DTC cells; conditions: BaF3_DTC cells (EGFR_Exon19del/T790M/C797S), compounds 24 h, western blot; read-out: BaF3_DTC DC50
Protocol: as §1

BaF3_DTC = experiment: Cell growth inhibition assay (CellTiter-Glo), BaF3_DTC; conditions: 72 h; Table 6; BaF3_DTC cells, three days, CellTiter-Glo; read-out: BaF3_DTC GI50
Protocol: as §2, §3

| Structure (SMILES) | DC50 [1] [nM] | GI50 (BaF3_ASV) [nM] | GI50 (A431) [nM] | DC50 [2] [nM] | GI50 (BaF3_DTC) [nM] |
| --- | --- | --- | --- | --- | --- |
| CCc1cc(Nc2ncc(Br)c(Nc3ccc4nccnc4c3NS(C)(=O)=O)n2)c(OC)cc1N1CCC(N2CC(N3CCN(c4ccc5c(c4)CN([C@H]4CCC(=O)NC4=O)C5=O)CC3)C2)CC1 [Compound 63, (S)-N-(6-((5-bromo-2-((4-(4-(3-(4-(2-(2,6-dioxopiperidin-3-yl)-1-oxoisoindolin-5-yl)piperazin-1-yl)azetidin-1-yl)piperidin-1-yl)-5-ethyl-2-methoxyphenyl)amino)pyrimidin-4-yl)amino)quinoxalin-5-yl)methanesulfonamide] | 18.2 | 40.8 | > 1000 | 12.9 | 6.23 |
| CCc1cc(Nc2ncc(Br)c(Nc3ccc4nccnc4c3NS(C)(=O)=O)n2)c(OC)cc1N1CCC(N2CCC3(CCN(c4ccc5c(c4)CN(C4CCC(=O)NC4=O)C5=O)CC3)CC2)CC1 (centres unmarked) [Compound 53, N-(6-((5-bromo-2-((4-(4-(9-(2-(2,6-dioxopiperidin-3-yl)-1-oxoisoindolin-5-yl)-3,9-diazaspiro[5.5]undecan-3-yl)piperidin-1-yl)-5-ethyl-2-methoxyphenyl)amino)pyrimidin-4-yl)amino)quinoxalin-5-yl)methanesulfonamide] | > 1000 | 330 | > 1000 | 5.99 | 22.7 |
| CCc1cc(Nc2ncc(Br)c(Nc3ccc4nccnc4c3NS(C)(=O)=O)n2)c(OC)cc1N1CCC(N2CCN(CC3(CN4CCN(c5ccc6c(c5)CN([C@H]5CCC(=O)NC5=O)C6=O)CC4)CC3)CC2)CC1 [Compound 42, (S)-N-(6-((5-bromo-2-((4-(4-(4-((1-((4-(2-(2,6-dioxopiperidin-3-yl)-1-oxoisoindolin-5-yl)piperazin-1-yl)methyl)cyclopropyl)methyl)piperazin-1-yl)piperidin-1-yl)-5-ethyl-2-methoxyphenyl)amino)pyrimidin-4-yl)amino)quinoxalin-5-yl)methanesulfonamide] | > 1000 | 105 | 606 | > 100 | 86 |
| CCc1cc(Nc2ncc(Br)c(Nc3ccc4nccnc4c3NS(C)(=O)=O)n2)c(OC)cc1N1CCC(CN2CCN(c3ccc4c(c3)CN([C@H]3CCC(=O)NC3=O)C4=O)CC2)CC1 [Compound 43, (S)-N-(6-((5-bromo-2-((4-(4-((4-(2-(2,6-dioxopiperidin-3-yl)-1-oxoisoindolin-5-yl)piperazin-1-yl)methyl)piperidin-1-yl)-5-ethyl-2-methoxyphenyl)amino)pyrimidin-4-yl)amino)quinoxalin-5-yl)methanesulfonamide] | – | 119 | > 1000 | 0.323 | 15 |
| CCc1cc(Nc2ncc(Br)c(Nc3ccc4nccnc4c3NS(C)(=O)=O)n2)c(OC)cc1N1CCC2(CCN(CC3CCN(c4ccc5c(c4)CN(C4CCC(=O)NC4=O)C5=O)CC3)CC2)CC1 (centres unmarked) [Compound 37, N-(6-((5-bromo-2-((4-(9-((1-(2-(2,6-dioxopiperidin-3-yl)-1-oxoisoindolin-5-yl)piperidin-4-yl)methyl)-3,9-diazaspiro[5.5]undecan-3-yl)-5-ethyl-2-methoxyphenyl)amino)pyrimidin-4-yl)amino)quinoxalin-5-yl)methanesulfonamide] | 102 | 55.7 | 382 | 8.6 | 7.94 |
| CCc1cc(Nc2ncc(Br)c(Nc3ccc4nccnc4c3NS(C)(=O)=O)n2)c(OC)cc1N1CCC(CN2CC3(CCN(c4ccc5c(c4)CN(C4CCC(=O)NC4=O)C5=O)CC3)C2)CC1 (centres unmarked) [Compound 58, N-(6-((5-bromo-2-((4-(4-((7-(2-(2,6-dioxopiperidin-3-yl)-1-oxoisoindolin-5-yl)-2,7-diazaspiro[3.5]nonan-2-yl)methyl)piperidin-1-yl)-5-ethyl-2-methoxyphenyl)amino)pyrimidin-4-yl)amino)quinoxalin-5-yl)methanesulfonamide] | 23 | 49 | > 1000 | 10.4 | 11.2 |
| CCc1cc(Nc2ncc(Br)c(Nc3ccc4nccnc4c3NS(C)(=O)=O)n2)c(OC)cc1N1CCC(N2CCN(CCNc3cccc4c3CN(C3CCC(=O)NC3=O)C4=O)CC2)CC1 (centres unmarked) [Compound 91, N-(6-((5-bromo-2-((4-(4-(4-(2-((2-(2,6-dioxopiperidin-3-yl)-1-oxoisoindolin-4-yl)amino)ethyl)piperazin-1-yl)piperidin-1-yl)-5-ethyl-2-methoxyphenyl)amino)pyrimidin-4-yl)amino)quinoxalin-5-yl)methanesulfonamide] | 53.7 | 48.6 | 448 | 8.04 | 9.26 |
| CCc1cc(Nc2ncc(Br)c(Nc3ccc4nccnc4c3NS(C)(=O)=O)n2)c(OC)cc1N1CCC(N2CC(CN3CCN(c4ccc5c(c4)CN([C@H]4CCC(=O)NC4=O)C5=O)CC3)C2)CC1 [Compound 62, (S)-N-(6-((5-bromo-2-((4-(4-(3-((4-(2-(2,6-dioxopiperidin-3-yl)-1-oxoisoindolin-5-yl)piperazin-1-yl)methyl)azetidin-1-yl)piperidin-1-yl)-5-ethyl-2-methoxyphenyl)amino)pyrimidin-4-yl)amino)quinoxalin-5-yl)methanesulfonamide] | 75.2 | 130 | 383 | 5.18 | 19.3 |
| CCc1cc(Nc2ncc(Br)c(Nc3ccc4nccnc4c3NS(C)(=O)=O)n2)c(OC)cc1N1CCC(N2CCN(CCN3CCN(c4ccc5c(c4)CN([C@H]4CCC(=O)NC4=O)C5=O)CC3)CC2)CC1 [Compound 39, (S)-N-(6-((5-bromo-2-((4-(4-(4-(2-(4-(2-(2,6-dioxopiperidin-3-yl)-1-oxoisoindolin-5-yl)piperazin-1-yl)ethyl)piperazin-1-yl)piperidin-1-yl)-5-ethyl-2-methoxyphenyl)amino)pyrimidin-4-yl)amino)quinoxalin-5-yl)methanesulfonamide] | – | 73.4 | 441 | 3.13 | 11.1 |
| CCc1cc(Nc2ncc(Br)c(Nc3ccc4nccnc4c3NS(C)(=O)=O)n2)c(OC)cc1N1CCC(N2CCN(CC3CC4(CCN(c5ccc6c(c5)CN(C5CCC(=O)NC5=O)C6=O)CC4)C3)CC2)CC1 (centres unmarked) [Compound 47, N-(6-((5-bromo-2-((4-(4-(4-((7-(2-(2,6-dioxopiperidin-3-yl)-1-oxoisoindolin-5-yl)-7-azaspiro[3.5]nonan-2-yl)methyl)piperazin-1-yl)piperidin-1-yl)-5-ethyl-2-methoxyphenyl)amino)pyrimidin-4-yl)amino)quinoxalin-5-yl)methanesulfonamide] | – | 47.5 | > 1000 | 14.5 | 12.1 |
